Experiment [1] concerns the target T1, human prostaglandin E2 (subtype EP2) receptor (Homo sapiens, UniProt P43116).
T1 construct: host or cells: cells on a cell culture plate
In words: cAMP antagonism assay (HTRF cAMP, PGE2-stimulated cells). In kind it is cell-based. As to the method:
(§1) The binding of PGE2 to the EP2 subtype of the human PGE2 receptor induces activation of membrane-associated adenylate cyclases and leads to the formation of cAMP. In the presence of the phosphodiesterase inhibitor IBMX, cAMP which has accumulated due to this stimulation and been released by cell lysis is employed in a competitive detection method. In this assay, the cAMP in the lysate competes with cAMP-XL665 for binding of an Eu cryptate-labeled anti-cAMP antibody.
(§2) The two signals are measured in a suitable measuring instrument with a time lag, i.e. after the background fluorescence has declined.
The substance solutions (0.75 μl) containing 30% DMSO are introduced into an assay plate and dissolved in 16 μl of a KRSB+IBMX stimulation solution (1× Krebs-Ringer Bicarbonate Buffer; Sigma-Aldrich # K-4002; including 750 μM 3-isobutyl-1-methylxanthine Sigma-Aldrich # I-7018), and then 15 μl, thereof are transferred into a media-free cell culture plate which has been washed with KRSB shortly beforehand.
After preincubation at room temperature (RT) for 30 minutes, 5 μl of a 4×PGE2 solution (11 nM) are added, and incubation is carried out in the presence of the agonist at RT for a further 60 min (volume: ˜20 μl) before the reaction is then stopped by adding 5 μl of lysis buffer and incubated at RT for a further 20 min (volume: ˜25 μl). The cell lysate is then transferred into a measuring plate and measured in accordance with the manufacturer's information (cyclic AMP kit Cisbio International #62AMPPEC).
In general terms: TR-FRET usually uses a lanthanide donor and a delayed reading to cut background.

Experiment [2] deals with T1, human prostaglandin E2 (subtype EP2) receptor. As to the kind of experiment: cAMP agonism assay (HTRF cAMP). It is filed as cell-based. As to the method:
as §1, §2
The substance solutions (0.75 μl) containing 30% DMSO are introduced into an assay plate and dissolved in 16 μl of a KRSB+IBMX stimulation solution (1× Krebs-Ringer Bicarbonate Buffer; Sigma-Aldrich # K-4002; including 750 μM 3-isobutyl-1-methylxanthine Sigma-Aldrich # I-7018), and then 15 μl thereof are transferred into a media-free cell culture plate which has been washed with KRSB shortly beforehand.
After incubation at room temperature (RT; volume: ˜15 μl) for 60 minutes, the reaction is then stopped by adding 5 μl of lysis buffer and incubated at RT for a further 20 min (volume: ˜20 μl). The cell lysate is then transferred into a measuring plate and measured in accordance with the manufacturer's information (cyclic AMP kit Cisbio International #62AMPPEC).

Experiment [3] has as its system cumulus-oocyte complexes. As to the kind of experiment: Cumulus expansion assay in vitro. In kind it is cell-based, mice. The following applies: competing with PGE2. As to the method: Folliculogenesis is induced in immature female mice (strain: CD1 (ICR) from Charles River) at an age of 14-18 days by a single dose (intraperitoneally) of 10 I.U. of PMSG (Pregnant Mare Serum Gonadotropin; Sigma G-4877, Batch 68H0909). 47-50 hours after the injection, the ovaries are removed and the cumulus-oocyte complexes are removed. The cumulus complex is not yet expanded at this stage.
The cumulus-oocyte complexes are then incubated with prostaglandin E2 (PGE2) (1 μM), vehicle control (ethanol) or test substances for 20-24 hours. Medium: alpha-MEM medium with 0.1 mM IBMX, pyruvates (0.23 mM), glutamines (2 mM), pen/strep (100 IU/ml pen. and 100 μg/ml strep.) and HSA (8 mg/ml). Cumulus expansion is then established through the division into four stages (according to Vanderhyden et al. Dev Biol. 1990 August; 140(2):307-317).

Setting [4] is: cAMP assay, no PGE2 added, read-out: Agonism [ED50.
The mark [5] stands for this setting: cAMP assay in presence of PGE2, read-out: Antagonism [IC50.

Structures are written as SMILES. Read-outs that look alike come from different tables or passages of the source. Where only a bound is given, the exact number is not on record here.

T1 sequence (P43116 whole entry): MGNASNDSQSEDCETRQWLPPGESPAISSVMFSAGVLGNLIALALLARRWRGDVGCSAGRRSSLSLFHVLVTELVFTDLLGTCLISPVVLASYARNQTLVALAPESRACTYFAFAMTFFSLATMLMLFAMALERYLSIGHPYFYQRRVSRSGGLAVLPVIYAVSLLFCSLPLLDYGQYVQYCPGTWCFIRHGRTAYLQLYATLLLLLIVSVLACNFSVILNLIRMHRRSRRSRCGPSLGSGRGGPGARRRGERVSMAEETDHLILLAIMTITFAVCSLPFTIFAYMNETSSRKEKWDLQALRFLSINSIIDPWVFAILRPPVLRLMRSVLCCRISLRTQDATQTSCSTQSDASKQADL

A word on the IC50: it is the concentration at which inhibition is half-maximal. With `O=C(NC1CCN(c2nncc3cc(Br)ccc23)CC1)c1cccc(Cl)c1Cl` [Example 2, N-[1-(6-Bromo-phthalazin-1-yl)-piperidin-4-yl]-2,3-dichloro-benzamide], the concentration for half-maximal inhibition (IC50) in experiment [1] (read-out: IC50 in the antagonism test) is 200 nM. In addition, the EC50 in experiment [2] (setting [4]) and in experiment [2] (read-out: EC50 in the cellular agonism test) was greater than 19000 nM throughout. Further, the “suppression of cumulus expansion” value in experiment [3] (at one tenth of the concentration (of 100-200 μM)) is on record as 35%.
Turning to `Cc1nnc(N2CCC(NC(=O)c3cccc(Cl)c3Cl)CC2)c2cc(Br)ccc12` [Example 3, N-[1-(7-Bromo-4-methyl-phthalazin-1-yl)-piperidin-4-yl]-2,3-dichloro-benzamide], in experiment [1] (setting [5]), the IC50 amounted to 700 nM. The EC50 in experiment [2] (setting [4]) was greater than 19000 nM.
As for `Cc1nnc(N2CCC(NC(=O)c3cccc(Cl)c3Cl)CC2)c2ccc(Br)cc12` [Example 4, N-[1-(6-Bromo-4-methyl-phthalazin-1-yl)-piperidin-4-yl]-2,3-dichloro-benzamide], in experiment [1] (setting [5]), the IC50 came out at 500 nM. Moreover, in experiment [2] (setting [4]), the EC50 is greater than 19000 nM.
For `O=C(NC1CCN(c2nncc3ccc(Br)cc23)CC1)c1cccc(Cl)c1Cl` [Example 1, N-[1-(7-Bromo-phthalazin-1-yl)-piperidin-4-yl]-2,3-dichloro-benzamide] the same measures were 300 nM and greater than 19000 nM.
As for `CC(C)Oc1ccc2c(=O)c3cc(C(=O)O)ccc3oc2c1` [AH 6809, reference compound], the “suppression of cumulus expansion” value in experiment [3] (at a concentration of 100-200 μM) was “about 20%”.

Values taken from US20080146576A1, “N-(1-Phthalazin-1-ylpiperidin-4-yl)amides as EP2 receptor modulators” (priority 2006, published 2008).
